According to PubChem BioAssay (NCI):
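96-well plates; 48 h exposure; 5 concentrations. Endpoints by linear interpolation between flanking doses. Not reached: highest tested concentration assigned. Here, GI50 denotes the concentration required for 50% inhibition of growth. The concentration for full growth arrest is given as TGI.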

How the values were obtained:
Assay in all cases: NCI anticancer screen, dose series, 48 h
786-0 renal = tested on: 786-0 renal
A498 renal = tested on: A498 renal
A549 NSCLC = tested on: A549 NSCLC
ACHN renal = tested on: ACHN renal
BT-549 breast = tested on: BT-549 breast
CAKI-1 renal = tested on: CAKI-1 renal
CCRF-CEM leukemia = tested on: CCRF-CEM leukemia
COLO 205 colon = tested on: COLO 205 colon
DU-145 prostate = tested on: DU-145 prostate
EKVX NSCLC = tested on: EKVX NSCLC
HCC-2998 colon = tested on: HCC-2998 colon
HCT-116 colon = tested on: HCT-116 colon
HCT-15 colon = tested on: HCT-15 colon
HL-60(TB) leukemia = tested on: HL-60(TB) leukemia
HOP-62 NSCLC = tested on: HOP-62 NSCLC
HOP-92 NSCLC = tested on: HOP-92 NSCLC
HS 578T breast = tested on: HS 578T breast
HT29 colon = tested on: HT29 colon
IGROV1 ovarian = tested on: IGROV1 ovarian
K-562 leukemia = tested on: K-562 leukemia
KM12 colon = tested on: KM12 colon
LOX IMVI melanoma = tested on: LOX IMVI melanoma
M14 melanoma = tested on: M14 melanoma
MALME-3M melanoma = tested on: MALME-3M melanoma
MCF7 breast = tested on: MCF7 breast
MDA-MB-231 breast = tested on: MDA-MB-231 breast
MDA-MB-435 = tested on: MDA-MB-435
MOLT-4 leukemia = tested on: MOLT-4 leukemia
NCI-H226 lung = tested on: NCI-H226 lung
NCI-H23 lung = tested on: NCI-H23 lung
NCI-H460 lung = tested on: NCI-H460 lung
NCI-H522 lung = tested on: NCI-H522 lung
NCI/ADR-RES ovarian = tested on: NCI/ADR-RES ovarian
OVCAR-4 ovarian = tested on: OVCAR-4 ovarian
OVCAR-5 ovarian = tested on: OVCAR-5 ovarian
OVCAR-8 ovarian = tested on: OVCAR-8 ovarian
PC-3 prostate = tested on: PC-3 prostate
RPMI-8226 leukemia = tested on: RPMI-8226 leukemia
RXF 393 renal = tested on: RXF 393 renal
SF-268 CNS = tested on: SF-268 CNS
SF-295 CNS = tested on: SF-295 CNS
SF-539 CNS = tested on: SF-539 CNS
SK-MEL-2 melanoma = tested on: SK-MEL-2 melanoma
SK-MEL-28 melanoma = tested on: SK-MEL-28 melanoma
SK-MEL-5 melanoma = tested on: SK-MEL-5 melanoma
SK-OV-3 ovarian = tested on: SK-OV-3 ovarian
SN12C renal = tested on: SN12C renal
SNB-19 CNS = tested on: SNB-19 CNS
SNB-75 CNS = tested on: SNB-75 CNS
SR leukemia = tested on: SR leukemia
SW-620 colon = tested on: SW-620 colon
T-47D breast = tested on: T-47D breast
TK-10 renal = tested on: TK-10 renal
U251 CNS = tested on: U251 CNS
UACC-257 melanoma = tested on: UACC-257 melanoma
UACC-62 melanoma = tested on: UACC-62 melanoma
UO-31 renal = tested on: UO-31 renal

`CCC(CC)N1C(=O)/C(=c2\sc3n(c2=O)C2C(NN=3)N(CC)C(=O)N2CC)c2ccccc21` (centres undefined) gave a GI50 (786-0 renal) of 665 nM, a TGI (786-0 renal) of 14800 nM and a GI50 (A498 renal) of 287 nM. For the same compound, the TGI (A498 renal) was 925 nM, the GI50 (A549 NSCLC) was 503 nM and the TGI (A549 NSCLC) was 21700 nM. The GI50 (ACHN renal) was 690 nM, the TGI (ACHN renal) was 16600 nM and the GI50 (BT-549 breast) was 465 nM. The TGI (BT-549 breast) was 3290 nM, the GI50 (CAKI-1 renal) was 577 nM and the TGI (CAKI-1 renal) was 14900 nM. It also gave a GI50 (CCRF-CEM leukemia) of 365 nM, a TGI (CCRF-CEM leukemia) greater than 94000 nM and a GI50 (COLO 205 colon) of 317 nM. The TGI (COLO 205 colon) was 1120 nM, the GI50 (DU-145 prostate) was 453 nM and the TGI (DU-145 prostate) was 17200 nM. It also gave a GI50 (EKVX NSCLC) of 734 nM, a TGI (EKVX NSCLC) greater than 87800 nM and a GI50 (HCC-2998 colon) of 370 nM. The TGI (HCC-2998 colon) was 12600 nM, the GI50 (HCT-116 colon) was 345 nM and the TGI (HCT-116 colon) was 5180 nM. It also gave a GI50 (HCT-15 colon) of 353 nM, a TGI (HCT-15 colon) of 13100 nM and a GI50 (HL-60(TB) leukemia) of 288 nM. It also gave a TGI (HL-60(TB) leukemia) of 888 nM, a GI50 (HOP-62 NSCLC) of 554 nM and a TGI (HOP-62 NSCLC) of 22500 nM. It also gave a GI50 (HOP-92 NSCLC) of 2410 nM, a TGI (HOP-92 NSCLC) of 45400 nM and a GI50 (HS 578T breast) of 381 nM. It also gave a TGI (HS 578T breast) of 22500 nM, a GI50 (HT29 colon) of 326 nM and a TGI (HT29 colon) of 3040 nM. It also gave a GI50 (IGROV1 ovarian) of 554 nM, a TGI (IGROV1 ovarian) of 19200 nM and a GI50 (K-562 leukemia) of 351 nM. The TGI (K-562 leukemia) was greater than 100000 nM, the GI50 (KM12 colon) was 431 nM and the TGI (KM12 colon) was 25100 nM. The GI50 (LOX IMVI melanoma) was 345 nM, the TGI (LOX IMVI melanoma) was 11100 nM and the GI50 (M14 melanoma) was 337 nM. For the same compound, the TGI (M14 melanoma) was 11500 nM, the GI50 (MALME-3M melanoma) was 3460 nM and the TGI (MALME-3M melanoma) was 35100 nM. For the same compound, the GI50 (MCF7 breast) was 364 nM, the TGI (MCF7 breast) was 14000 nM and the GI50 (MDA-MB-231 breast) was 591 nM. It also gave a TGI (MDA-MB-231 breast) of 12000 nM, a GI50 (MDA-MB-435) of 240 nM and a TGI (MDA-MB-435) of 602 nM. For the same compound, the GI50 (MOLT-4 leukemia) was 434 nM, the TGI (MOLT-4 leukemia) was greater than 41100 nM and the GI50 (NCI-H226 lung) was 923 nM. The TGI (NCI-H226 lung) was 37100 nM, the GI50 (NCI-H23 lung) was 535 nM and the TGI (NCI-H23 lung) was 17800 nM. For the same compound, the GI50 (NCI-H460 lung) was 364 nM, the TGI (NCI-H460 lung) was 29000 nM and the GI50 (NCI-H522 lung) was 312 nM. The TGI (NCI-H522 lung) was 3360 nM, the GI50 (NCI/ADR-RES ovarian) was 385 nM and the TGI (NCI/ADR-RES ovarian) was 15600 nM. For the same compound, the GI50 (OVCAR-4 ovarian) was 10400 nM, the TGI (OVCAR-4 ovarian) was greater than 100000 nM and the GI50 (OVCAR-5 ovarian) was 538 nM. For the same compound, the TGI (OVCAR-5 ovarian) was 35300 nM, the GI50 (OVCAR-8 ovarian) was 397 nM and the TGI (OVCAR-8 ovarian) was 26700 nM. For the same compound, the GI50 (PC-3 prostate) was 473 nM, the TGI (PC-3 prostate) was greater than 100000 nM and the GI50 (RPMI-8226 leukemia) was 442 nM. The TGI (RPMI-8226 leukemia) was 8450 nM, the GI50 (RXF 393 renal) was 326 nM and the TGI (RXF 393 renal) was 16700 nM. It also gave a GI50 (SF-268 CNS) of 1070 nM, a TGI (SF-268 CNS) of 29300 nM and a GI50 (SF-295 CNS) of 324 nM. For the same compound, the TGI (SF-295 CNS) was 12300 nM, the GI50 (SF-539 CNS) was 307 nM and the TGI (SF-539 CNS) was 3430 nM. The GI50 (SK-MEL-2 melanoma) was 1920 nM, the TGI (SK-MEL-2 melanoma) was 5880 nM and the GI50 (SK-MEL-28 melanoma) was 5820 nM. The TGI (SK-MEL-28 melanoma) was 60200 nM, the GI50 (SK-MEL-5 melanoma) was 590 nM and the TGI (SK-MEL-5 melanoma) was 4100 nM. For the same compound, the GI50 (SK-OV-3 ovarian) was 629 nM, the TGI (SK-OV-3 ovarian) was 51800 nM and the GI50 (SN12C renal) was 1200 nM. It also gave a TGI (SN12C renal) of 17800 nM, a GI50 (SNB-19 CNS) of 465 nM and a TGI (SNB-19 CNS) of 24600 nM. It also gave a GI50 (SNB-75 CNS) of 198 nM, a TGI (SNB-75 CNS) of 714 nM and a GI50 (SR leukemia) of 361 nM. The TGI (SR leukemia) was greater than 35100 nM, the GI50 (SW-620 colon) was 458 nM and the TGI (SW-620 colon) was greater than 100000 nM. For the same compound, the GI50 (T-47D breast) was 2800 nM, the TGI (T-47D breast) was greater than 65600 nM and the GI50 (TK-10 renal) was 9040 nM. It also gave a TGI (TK-10 renal) of 29100 nM, a GI50 (U251 CNS) of 405 nM and a TGI (U251 CNS) of 15500 nM. The GI50 (UACC-257 melanoma) was 7210 nM, the TGI (UACC-257 melanoma) was greater than 78000 nM and the GI50 (UACC-62 melanoma) was 538 nM. For the same compound, the TGI (UACC-62 melanoma) was 21600 nM, the GI50 (UO-31 renal) was 688 nM and the TGI (UO-31 renal) was 33800 nM.
